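48-hour exposure; five concentrations; linearly interpolated endpoints. Abbreviation: GI50, concentration required for 50% inhibition of growth.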 Activity calls are given as the source filed them. Rule as the data show it: active = GI50 up to about 1.1 µM and inactive = higher.
Key:
Assay in all cases: DTP human tumour cell line panel, 48 h
MOLT-4 = tested on: MOLT-4
TK-10 = tested on: TK-10
HOP-62 = tested on: HOP-62
UACC-62 = tested on: UACC-62
OVCAR-3 = tested on: OVCAR-3
SW-620 = tested on: SW-620
MCF7 = tested on: MCF7
SF-539 = tested on: SF-539
HCT-116 = tested on: HCT-116
SN12C = tested on: SN12C
SK-MEL-2 = tested on: SK-MEL-2
HOP-92 = tested on: HOP-92
A549 = tested on: A549
SK-MEL-28 = tested on: SK-MEL-28
NCI-H23 = tested on: NCI-H23
OVCAR-5 = tested on: OVCAR-5
SNB-19 = tested on: SNB-19
HCC 2998 = tested on: HCC 2998
K562 = tested on: K562

| Structure (SMILES) | GI50 (MOLT-4) | GI50 (TK-10) | GI50 (HOP-62) | GI50 (UACC-62) | GI50 (OVCAR-3) | GI50 (SW-620) | GI50 (MCF7) | GI50 (SF-539) | GI50 (HCT-116) | GI50 (SN12C) | GI50 (SK-MEL-2) | GI50 (HOP-92) | GI50 (A549) | GI50 (SK-MEL-28) | GI50 (NCI-H23) | GI50 (OVCAR-5) | GI50 (SNB-19) | GI50 (HCC 2998) | GI50 (K562) |
| --- | --- | --- | --- | --- | --- | --- | --- | --- | --- | --- | --- | --- | --- | --- | --- | --- | --- | --- | --- |
| c1c[nH]c(CN2CCN(Cc3ncc[nH]3)CC2)n1 | > 100 µM (inactive) | > 100 µM (inactive) | > 100 µM (inactive) | > 100 µM (inactive) | > 100 µM (inactive) | > 100 µM (inactive) | > 100 µM (inactive) | > 100 µM (inactive) | > 100 µM (inactive) | > 100 µM (inactive) | > 100 µM (inactive) | > 100 µM (inactive) | > 100 µM (inactive) | > 100 µM (inactive) | > 100 µM (inactive) | > 100 µM (inactive) | > 100 µM (inactive) |  |  |
| O=C(Nc1ccc2[nH]c(C(=O)N3CC(CCl)c4c3cc([N+](=O)[O-])c3ccccc43)cc2c1)Nc1ccc2[nH]c(C(=O)N3CC(CCl)c4c3cc([N+](=O)[O-])c3ccccc43)cc2c1 (stereo not drawn) |  | > 100 µM (inactive) | > 100 µM (inactive) | > 100 µM (inactive) | > 100 µM (inactive) |  | > 100 µM (inactive) | > 100 µM (inactive) | > 100 µM (inactive) | > 100 µM (inactive) | > 100 µM (inactive) | > 100 µM (inactive) | > 100 µM (inactive) | > 100 µM (inactive) | > 100 µM (inactive) | > 100 µM (inactive) | > 100 µM (inactive) |  |  |
| C[C@@H]1C(=O)O[C@H]1[C@H](O)CO | 34.1 µM (inactive) | > 100 µM (inactive) | > 100 µM (inactive) | > 100 µM (inactive) | > 100 µM (inactive) | > 100 µM (inactive) | > 100 µM (inactive) |  | > 100 µM (inactive) | > 100 µM (inactive) | > 100 µM (inactive) | 63.1 µM (inactive) | > 100 µM (inactive) | > 100 µM (inactive) | > 100 µM (inactive) | > 100 µM (inactive) | > 100 µM (inactive) | > 100 µM (inactive) |  |
| N/C(=N\c1ccc(Cl)cc1)NS(=O)(=O)c1ccc(S(=O)(=O)c2ccccc2)s1 | 18 µM (inactive) | 21.2 µM (inactive) | 18.1 µM (inactive) | 11.3 µM (inactive) | 25.4 µM (inactive) | 19 µM (inactive) | 17.2 µM (inactive) | 22.7 µM (inactive) | 15.4 µM (inactive) | 17.5 µM (inactive) | 14.1 µM (inactive) | 19.7 µM (inactive) | 23.9 µM (inactive) | 19.7 µM (inactive) | 17.7 µM (inactive) | 31.9 µM (inactive) | 33.8 µM (inactive) |  | 18.8 µM (inactive) |
| N#Cc1nnc2ccccc2c1N | > 100 µM (inactive) | > 100 µM (inactive) | > 100 µM (inactive) | > 100 µM (inactive) | 2.26 µM (inactive) | > 100 µM (inactive) | > 100 µM (inactive) | > 100 µM (inactive) | > 100 µM (inactive) |  | > 100 µM (inactive) | > 100 µM (inactive) | > 100 µM (inactive) | > 100 µM (inactive) | > 100 µM (inactive) | > 100 µM (inactive) | > 100 µM (inactive) | > 100 µM (inactive) | > 100 µM (inactive) |
| CN(C)c1ccc(/C=C2\N=C(c3ccccc3)N(c3nc4c(Cl)cc(Cl)cc4s3)C2=O)cc1 | 22.6 µM (inactive) | 85.7 µM (inactive) | > 100 µM (inactive) | 33.1 µM (inactive) | 64.4 µM (inactive) | 46.6 µM (inactive) | 31.6 µM (inactive) | > 100 µM (inactive) | 35.2 µM (inactive) | 44 µM (inactive) | 49.9 µM (inactive) | 24.5 µM (inactive) | 49.9 µM (inactive) | 54.6 µM (inactive) |  | 57.9 µM (inactive) | 82.4 µM (inactive) | 45.2 µM (inactive) | 31.6 µM (inactive) |
| O=C(O)CC12CC3CC(CC(O)(C3)C1)C2 |  | > 100 µM (inactive) | > 100 µM (inactive) | > 100 µM (inactive) | 3.14 µM (inactive) | > 100 µM (inactive) | > 100 µM (inactive) | > 100 µM (inactive) | > 100 µM (inactive) | > 100 µM (inactive) | > 100 µM (inactive) | > 100 µM (inactive) | > 100 µM (inactive) | > 100 µM (inactive) | > 100 µM (inactive) | > 100 µM (inactive) | > 100 µM (inactive) | > 100 µM (inactive) | > 100 µM (inactive) |
| C[C@H]1/C(=C/C(=O)OCCN(C)C)CC[C@H]2[C@H]1C(=O)C[C@H]1C(C)(C)[C@@H](O)CC[C@]21C | > 100 µM (inactive) | > 100 µM (inactive) | > 100 µM (inactive) | > 100 µM (inactive) | > 100 µM (inactive) | > 100 µM (inactive) | > 100 µM (inactive) | > 100 µM (inactive) | > 100 µM (inactive) | > 100 µM (inactive) | > 100 µM (inactive) | > 100 µM (inactive) | > 100 µM (inactive) | > 100 µM (inactive) | > 100 µM (inactive) | > 100 µM (inactive) | > 100 µM (inactive) | > 100 µM (inactive) |  |
| C=CCNC1=C2C[C@@H](C)C[C@@H](OC)[C@H](OC(=O)CCN)[C@H](C)/C=C(\C)[C@@H](OC(N)=O)[C@H](OC)/C=C\C=C(/C)C(=O)NC(=CC1=O)C2=O | 3.86 µM (inactive) | 2.17 µM (inactive) | 3.53 µM (inactive) | 2.9 µM (inactive) | 2.45 µM (inactive) | 3.6 µM (inactive) | 0.703 µM (active) |  | 3.53 µM (inactive) | 2.34 µM (inactive) | 1.9 µM (inactive) | 4.49 µM (inactive) | 3.4 µM (inactive) | 14.5 µM (inactive) | 3.01 µM (inactive) | 10.8 µM (inactive) | 6.27 µM (inactive) | 1.06 µM (active) | 3.99 µM (inactive) |
| O=C1CCC(=O)N1CNc1ccc2c(c1)S(=O)(=O)c1ccccc1O2 | > 100 µM (inactive) | > 100 µM (inactive) | > 100 µM (inactive) | > 100 µM (inactive) | > 100 µM (inactive) | > 100 µM (inactive) | > 100 µM (inactive) | > 100 µM (inactive) | > 100 µM (inactive) | > 100 µM (inactive) | > 100 µM (inactive) | > 100 µM (inactive) | > 100 µM (inactive) | > 100 µM (inactive) | > 100 µM (inactive) | > 100 µM (inactive) | > 100 µM (inactive) |  | > 100 µM (inactive) |
| CC1N=C(c2ccccc2)OC1=O (stereo not drawn) | > 100 µM (inactive) | > 100 µM (inactive) | > 100 µM (inactive) | > 100 µM (inactive) | > 100 µM (inactive) | > 100 µM (inactive) | > 100 µM (inactive) | > 100 µM (inactive) | > 100 µM (inactive) | > 100 µM (inactive) | > 100 µM (inactive) | > 100 µM (inactive) | > 100 µM (inactive) | > 100 µM (inactive) | > 100 µM (inactive) | > 100 µM (inactive) | > 100 µM (inactive) |  | > 100 µM (inactive) |
| CC(C)(C)N/C(N)=N/C#N | > 100 µM (inactive) | > 100 µM (inactive) | > 100 µM (inactive) | > 100 µM (inactive) |  | > 100 µM (inactive) | > 100 µM (inactive) | > 100 µM (inactive) | > 100 µM (inactive) | > 100 µM (inactive) | > 100 µM (inactive) | > 100 µM (inactive) | > 100 µM (inactive) | > 100 µM (inactive) | > 100 µM (inactive) | > 100 µM (inactive) | > 100 µM (inactive) | > 100 µM (inactive) | > 100 µM (inactive) |
| COc1ccc2c(c1)c1c(n2CCN2CCOCC2)-c2cccc(OC)c2CC1 | 23.2 µM (inactive) | 44.6 µM (inactive) | 45.6 µM (inactive) | 29.6 µM (inactive) | 52.7 µM (inactive) | 36.8 µM (inactive) | 23.5 µM (inactive) | 33.3 µM (inactive) | 33.7 µM (inactive) | 47.2 µM (inactive) | 22.3 µM (inactive) | 45.8 µM (inactive) | 26.2 µM (inactive) | 54.1 µM (inactive) | 52.8 µM (inactive) | 55.2 µM (inactive) |  | 26.6 µM (inactive) | 17.3 µM (inactive) |
| COc1ccc(/C=C2\S/C(=N/Nc3nc(-c4ccccc4)cs3)NC2=O)cc1OC | 3.07 µM (inactive) | 20.5 µM (inactive) | 22.1 µM (inactive) | 23.6 µM (inactive) | 15.9 µM (inactive) | 30.3 µM (inactive) | 19.2 µM (inactive) | 24.3 µM (inactive) | 17.1 µM (inactive) | 17.8 µM (inactive) | 19.1 µM (inactive) | 12.6 µM (inactive) | 20.9 µM (inactive) | 32.7 µM (inactive) | 19.1 µM (inactive) | 23.4 µM (inactive) | 25.6 µM (inactive) | 22.4 µM (inactive) |  |
| O=C(Nc1ccccc1Cl)c1cc(S(=O)(=O)Nc2n[nH]c(=O)n2-c2ccccc2)c(S)cc1Cl | > 100 µM (inactive) |  | > 100 µM (inactive) | > 100 µM (inactive) | > 100 µM (inactive) | > 100 µM (inactive) | > 100 µM (inactive) | > 100 µM (inactive) | > 10 µM (inactive) | > 100 µM (inactive) | > 100 µM (inactive) | > 100 µM (inactive) |  | > 100 µM (inactive) | > 100 µM (inactive) | > 100 µM (inactive) | 92.3 µM (inactive) | > 100 µM (inactive) |  |

— ChEMBL document CHEMBL1201862, “PubChem BioAssay data set” (2004)
